Here are results for 6 compounds from patent US20190275167A1, “GLASS FORMULATIONS AND USES THEREOF” (priority 2018, published 2019).

Series [1] in a line: Drug release from heat-molded pellets/articles in release buffer (PBS, 1% FBS in PBS or 100% FBS) at 37° C., HPLC quantification. The class given is physicochemical. Particulars: for Drug release from heat molded pellets: pellets 1 mm×1 mm.
Description: Samples were incubated at 37° C. on a shaker rotating at 115 rpm. After 1 day, 3 days, 7 days, and subsequently in alternating 3 and 4 day intervals (i.e., 1, 3, 7, 10, 14 days etc.), release buffer was sampled directly (PBS) or syringe filtered, proteins were precipitated with acetonitrile, and drug release products were extracted. The samples were analyzed by high performance liquid chromatography (HPLC) to quantify drug products.
The nature of series [2]: Ethylene oxide (ETO) gas sterilization of heat-molded pellets, purity by HPLC and drug release pre- and post-ETO. Format: physicochemical. Particulars: ETO gas at 55° C.
In series [3] the test system is joint of a subject suffering from inflammation, e.g., arthritis. Kind of series: Microparticles and nanoparticles injected into the joint of a subject suffering from inflammation. Format: in vivo. The source says:
Microparticles and nanoparticles are formed from Compound 1 according to the methods described in above. […] Local inflammation in the joint of the subject is reduced. Similarly, the other compounds of the disclosure can likewise be used to form micro- and nanoparticles and injected into the joint of a subject for the purposes of treating, e.g., inflammation, and the drug is released at a steady rate over several months (e.g., three months).

On to “Fusidic Acid-Triethylene Glycol-Fusidic Acid (carbonate ester) [Compound 9]”, for which the “Speed of drug release compared to other drug dimers with triethylene glycol linker” value in series [1] (100% FBS) was “release very quickly”.

For the compound `C[C@@H]1C[C@H]2[C@@H]3CCC4=CC(=O)C=C[C@]4(C)[C@@]3(F)[C@@H](O)C[C@]2(C)[C@@]1(O)C(=O)COC(=O)OCCOCCOCCOC(=O)OCC(=O)[C@@]1(O)[C@H](C)C[C@H]2[C@@H]3CCC4=CC(=O)C=C[C@]4(C)[C@@]3(F)[C@@H](O)C[C@@]21C` [Compound 1, Dexamethasone-Triethylene Glycol-Dexamethasone], the “Change in pellet purity due to ETO sterilization (HPLC)” value in series [2] (pre- vs post-sterilization) is given as “no changes”. For the same compound, in series [2] (release in 1% FBS in PBS or 100% FBS), the “Change in release properties due to ETO sterilization” value is reported as “no changes”. In addition, in series [3], the “Local inflammation in the joint of the subject” value was “reduced”; the “Release of drug into the subject from injected micro- and nanoparticles” value is reported as “steady rate over three months”. Also, the “Mechanism of drug release from pellets (representative images over time)” value in series [1] (100% FBS, 37° C.) is “surface erosion”. For the same compound, the “Dexamethasone release profile from articles” value in series [1] (over the course of 12 weeks or more, FIGS. 1E, 12E, 15C, 17D) is reported as “generally linear”. Besides, the “Shape of pellets during surface erosion” value (FIG. 1F (100% FBS)) is on record as “maintaining their shape”. The “Physical form (shape) changes of articles” value (physiologically relevant conditions) is “do not”.

Take “Cholesterol-Triethylene Glycol-Cholesterol [Compound 14]”: the “Drug release from heat molded pellets” value in series [1] (100% FBS, 37° C.) is “no drug was released”; in series [1] (PBS, 37° C.), “no drug was released”.

As to “Ethinylestradiol-Triethylene Glycol-Ethinylestradiol [Compound 16]”, the “Drug release from heat molded pellets” value was “no drug was released” in series [1] (100% FBS, 37° C.) and “no drug was released” in series [1] (PBS, 37° C.).

Regarding “Hydrocortisone-Triethylene Glycol-Hydrocortisone [Compound 2]”, in series [1] (100% FBS), the “Speed of drug release compared to other drug dimers with triethylene glycol linker” value is on record as “release very quickly”.

For the compound “Fusidic Acid-Triethylene Glycol-Fusidic Acid (ester) [Compound 15]”, the “Drug release from heat molded pellets” value is listed as “no drug was released” in series [1] (100% FBS, 37° C.) and “no drug was released” in series [1] (PBS, 37° C.).
